This assay concerns the target SARS-CoV-2 3CLpro (Severe acute respiratory syndrome coronavirus 2, UniProt P0DTD1). Kind of assay: biochemical. In kind it is biochemical. Set-up: Replicate_1 / Replicate_2 / mean / mean (LOPAC_screen_w_protease): unit not given here. The following applies: for inhibition at 5 µM: 4 h.
Setting [1] is: LOPAC1280 primary screen with protease, 5 µM compound, replicate 1, read-out: Replicate_1 (LOPAC_screen_w_protease).
The mark [2] stands for this setting: LOPAC1280 primary screen with protease, 5 µM compound, replicate 2, read-out: Replicate_2 (LOPAC_screen_w_protease).
The mark [3] stands for this setting: LOPAC1280 primary screen with protease, 5 µM compound, mean of two replicates.
Setting [4] is: sheet LOPAC_screen_w_protease, primary screen with protease, 5 µM, mean of two replicates.
[5] abbreviates: sheet LOPAC_screen_w_protease, primary screen with protease, 5 µM, replicate 1.
Where [6] appears, read: sheet LOPAC_screen_w_protease, primary screen with protease, 5 µM, replicate 2.
Where [7] appears, read: sheet LOPAC_screen_w_protease, LOPAC1280 primary screen at 5 µM, with protease, mean of the two replicates.
Setting [8] is: sheet LOPAC_screen_w_protease, LOPAC1280 primary screen at 5 µM, with protease, replicate 1.
The mark [9] stands for this setting: sheet LOPAC_screen_w_protease, LOPAC1280 primary screen at 5 µM, with protease, replicate 2.
The mark [10] stands for this setting: sheet LOPAC_screen_w_protease, LOPAC1280 at 5 µM, mean of two replicates.
Where [11] appears, read: sheet LOPAC_screen_w_protease, LOPAC1280 at 5 µM, replicate 1.
[12] abbreviates: sheet LOPAC_screen_w_protease, LOPAC1280 at 5 µM, replicate 2.
The mark [13] stands for this setting: sheet LOPAC_screen_w_protease, LOPAC1280 primary screen with protease, 5 µM compound, mean of the two replicates.
Setting [14] is: sheet LOPAC_screen_w_protease, LOPAC1280 primary screen with protease, 5 µM compound, replicate 1.
The mark [15] stands for this setting: sheet LOPAC_screen_w_protease, LOPAC1280 primary screen with protease, 5 µM compound, replicate 2.

Structures can show the parent of a compound that is named as a salt. Where two headings read alike, the source gives them in different places.

With `CNC(=O)[C@H]1O[C@@H](n2cnc3c(NCc4cccc(I)c4)nc(Cl)nc32)[C@H](O)[C@@H]1O` [Chloro-IB-MECA], the inhibition at 5 µM runs as follows: (sheet LOPAC_screen_w_protease, primary screen of LOPAC1280 at 5 µM with protease, mean of the two replicates, read-out: mean) 3.22%; (sheet LOPAC_screen_w_protease, primary screen of LOPAC1280 at 5 µM with protease, replicate 1, read-out: Replicate_1) 4.25%; (sheet LOPAC_screen_w_protease, primary screen of LOPAC1280 at 5 µM with protease, replicate 2, read-out: Replicate_2) 2.19%.

For `NC[C@@H]1O[C@H](O[C@H]2[C@@H](O)[C@H](O[C@@H]3[C@@H](O)[C@H](N)C[C@H](N)[C@H]3O[C@H]3O[C@H](CO)[C@@H](O)[C@H](O)[C@H]3N)O[C@@H]2CO)[C@H](N)[C@@H](O)[C@@H]1O` [Paromomycin sulfate], the inhibition at 5 µM reads like this: (sheet LOPAC_screen_w_protease, primary screen at 5 µM, mean of two replicates, read-out: mean (LOPAC screen with protease)) 7.62%; (sheet LOPAC_screen_w_protease, primary screen at 5 µM, replicate 1, read-out: Replicate_1 (LOPAC screen with protease)) 8.4%; (sheet LOPAC_screen_w_protease, primary screen at 5 µM, replicate 2, read-out: Replicate_2 (LOPAC screen with protease)) 6.83%.

Take `NNCCc1ccccc1` [Phenelzine sulfate]: the inhibition at 5 µM runs as follows: (read-out: Replicate_1) 0.173%; (read-out: Replicate_2) -1.72%; (read-out: mean) -0.773%.

For the molecule `NC(=O)c1cc(N2CC2)c([N+](=O)[O-])cc1[N+](=O)[O-]` [CB 1954], the inhibition at 5 µM is, setting by setting: under setting [1], 0.308%; under setting [2], 3.06%. In addition, the “mean (LOPAC_screen_w_protease)” value under setting [3] turned out to be 1.686.

Under setting [4], `O=c1ccn([C@@H]2O[C@H](COP(=O)([O-])OP(=O)([O-])O)[C@@H](O)[C@H]2O)c(=O)[nH]1.[Na+].[Na+]` [Uridine 5'-diphosphate sodium] yielded a mean of -0.3913. Under setting [5], this molecule returned a Replicate_1 of -1.155. For the same molecule, the Replicate_2 under setting [6] was 0.3722.

Molecule `CC1=NN=C(c2ccc(N)cc2)c2cc3c(cc2C1)OCO3.Cl` [GYKI 52466 hydrochloride] returned a mean under setting [7] of 0.5948. Moreover, the Replicate_1 under setting [8] came to 3.75. Besides, the Replicate_2 under setting [9] is -2.56.

`O=c1c(-c2ccc(O)cc2)coc2cc(O)ccc12` [Daidzein]: the inhibition at 5 µM is, setting by setting: (read-out: Replicate_1) 5.3%; (read-out: Replicate_2) 1.03%; (read-out: mean) 3.16%.

With `N=C(N)NC(=O)c1nc(Cl)c(N)nc1N` [Amiloride hydrochloride], the inhibition at 5 µM reads like this: (sheet LOPAC_screen_w_protease, primary screen with protease, 5 µM, mean of two replicates, read-out: mean) 0.179%; (sheet LOPAC_screen_w_protease, primary screen with protease, 5 µM, replicate 1, read-out: Replicate_1) -0.488%; (sheet LOPAC_screen_w_protease, primary screen with protease, 5 µM, replicate 2, read-out: Replicate_2) 0.846%.

With `O=C(O)c1cc(O)cc(C(=O)O)n1` [Chelidamic acid], the inhibition at 5 µM by setting is: (sheet LOPAC_screen_w_protease, primary screen with protease, compound at 5 µM, mean of two replicates, read-out: mean) 3.14%; (sheet LOPAC_screen_w_protease, primary screen with protease, compound at 5 µM, replicate 1, read-out: Replicate_1) 2.7%; (sheet LOPAC_screen_w_protease, primary screen with protease, compound at 5 µM, replicate 2, read-out: Replicate_2) 3.58%.

Consider `Cc1nc(-c2ccc(-c3ccc(C(=O)N4CCc5cc6c(cc54)C4(CCN(C)CC4)CO6)cc3)c(C)c2)no1.Cl` [SB 224289 hydrochloride], for which, under setting [10], the mean is on record as 1.002. Besides, the Replicate_1 under setting [11] turned out to be 2.397. Also, the Replicate_2 under setting [12] is reported as -0.3926.

`N=C(N)NC(=N)Nc1ccccc1` [1-Phenylbiguanide]: the mean under setting [7] turned out to be 0.7649. Further, the Replicate_1 under setting [8] is -0.09991. The same molecule displayed a Replicate_2 under setting [9] of 1.6298.

For the molecule `CCCCc1oc2ccccc2c1C(=O)c1cc(I)c(OCCN(CC)CC)c(I)c1` [Amiodarone hydrochloride], the inhibition at 5 µM reads like this: (read-out: Replicate_1) 2.09%; (read-out: Replicate_2) 4.04%; (read-out: mean) 3.06%.

For `Cn1cc(C(=O)OCC2CCN(CCNS(C)(=O)=O)CC2)c2ccccc21` [GR 113808], the mean under setting [10] was 1.128. Also, the Replicate_1 under setting [11] was determined as 1.417. Further, the Replicate_2 under setting [12] amounted to 0.838.

`CCCN(CCC)C1Cc2cc(OC)c(OC)cc2C1.O=C(O)/C=C\C(=O)O` [U-99194A maleate]: the mean under setting [4] is listed as -0.07283. The same molecule gave a Replicate_1 under setting [5] of -1.037. The same molecule gave a Replicate_2 under setting [6] of 0.891.

In the case of `CCC(=O)c1ccc2c(c1)N(CCCN(C)C)c1ccccc1S2` [Propionylpromazine hydrochloride], the inhibition at 5 µM is 2.15% under setting [1] and 0.621% under setting [2]. Moreover, under setting [3], the “mean (LOPAC_screen_w_protease)” value is reported as 1.386.

Consider `CCN(CC)CCCC(C)Nc1ccnc2cc(Cl)ccc12` (stereo not drawn) [Chloroquine diphosphate], for which the inhibition at 5 µM reads like this: (read-out: Replicate_1) 2.19%; (read-out: Replicate_2) 3.74%; (read-out: mean) 2.97%.

`COc1ccc(CCNC[C@H](O)c2ccc(O)cc2)cc1OC` [R(-)-Denopamine] returned a mean under setting [4] of -0.5647. The Replicate_1 under setting [5] is reported as -0.1092. The same molecule yielded a Replicate_2 under setting [6] of -1.02.

`O=C(Nc1cc(C(=O)Nc2ccc(S(=O)(=O)[O-])cc2S(=O)(=O)[O-])cc(C(=O)Nc2ccc(S(=O)(=O)[O-])cc2S(=O)(=O)[O-])c1)Nc1cc(C(=O)Nc2ccc(S(=O)(=O)[O-])cc2S(=O)(=O)[O-])cc(C(=O)Nc2ccc(S(=O)(=O)[O-])cc2S(=O)(=O)[O-])c1.[Na+].[Na+].[Na+].[Na+].[Na+].[Na+].[Na+].[Na+]` [NF449 octasodium salt] came in with a mean (sheet LOPAC_screen_w_protease, primary screen of LOPAC1280 at 5 µM with protease, mean of the two replicates) of 4.044. Also, the Replicate_1 (sheet LOPAC_screen_w_protease, primary screen of LOPAC1280 at 5 µM with protease, replicate 1) came out at 4.589. The Replicate_2 (sheet LOPAC_screen_w_protease, primary screen of LOPAC1280 at 5 µM with protease, replicate 2) was 3.499.

For `Cl.O=C(O)C1=CCCN(CCON=C(c2ccccc2)c2ccccc2)C1` [NO-711 hydrochloride], the Replicate_1 was 1.057, the Replicate_2 is on record as -0.5134 and the mean is 0.272.

`CC(C)Cc1ccc(C(C)C(=O)O)cc1` (racemic) [(±)-Ibuprofen]: where the note is “LOPAC1280 primary screen with protease, 5 µM compound, mean of the two replicates”, the “mean (LOPAC_screen_w_protease)” value is 1.9945. Further, the “Replicate_1 (LOPAC_screen_w_protease)” value (LOPAC1280 primary screen with protease, 5 µM compound, replicate 1) is 3.023. Further, the “Replicate_2 (LOPAC_screen_w_protease)” value (LOPAC1280 primary screen with protease, 5 µM compound, replicate 2) was 0.9655.

In the case of `COc1cc(NS(C)(=O)=O)ccc1Nc1c2ccccc2nc2ccccc12` [Amsacrine hydrochloride], the inhibition at 5 µM runs as follows: (sheet LOPAC_screen_w_protease, LOPAC1280 primary screen with protease, 5 µM compound, mean of the two replicates, read-out: mean) 4.23%; (sheet LOPAC_screen_w_protease, LOPAC1280 primary screen with protease, 5 µM compound, replicate 1, read-out: Replicate_1) 4.22%; (sheet LOPAC_screen_w_protease, LOPAC1280 primary screen with protease, 5 µM compound, replicate 2, read-out: Replicate_2) 4.24%.

As for `Cc1nc2sccn2c(=O)c1CCN1CCC(=C(c2ccc(F)cc2)c2ccc(F)cc2)CC1` [Ritanserin], the inhibition at 5 µM reads like this: under setting [1], 2.24%; under setting [2], 0.502%. The “mean (LOPAC_screen_w_protease)” value under setting [3] is reported as 1.373.

`CNCCC(Oc1ccc(C(F)(F)F)cc1)c1ccccc1` (stereo not drawn) [Fluoxetine hydrochloride]: the inhibition at 5 µM is 0.474% (sheet LOPAC_screen_w_protease, LOPAC1280 primary screen at 5 µM, with protease, mean of the two replicates, read-out: mean); 2.07% (sheet LOPAC_screen_w_protease, LOPAC1280 primary screen at 5 µM, with protease, replicate 1, read-out: Replicate_1); -1.12% (sheet LOPAC_screen_w_protease, LOPAC1280 primary screen at 5 µM, with protease, replicate 2, read-out: Replicate_2).

With `Cl.NC1(C(=O)O)CCCCC1`, the mean (sheet LOPAC_screen_w_protease, primary screen with protease, compound at 5 µM, mean of two replicates) was determined as 2.729. For the same molecule, the Replicate_1 (sheet LOPAC_screen_w_protease, primary screen with protease, compound at 5 µM, replicate 1) is given as 1.961. Where the note is “sheet LOPAC_screen_w_protease, primary screen with protease, compound at 5 µM, replicate 2”, this molecule gave a Replicate_2 of 3.496.

Regarding `COc1ccc2[nH]c(I)c(CCNC(C)=O)c2c1` [2-Iodomelatonin], under setting [13], the mean was determined as 5.613. Besides, under setting [14], the Replicate_1 is listed as 6.946. The molecule further yielded a Replicate_2 under setting [15] of 4.28.

Regarding `Br.CN1CCc2cc(O)cc3c2[C@H]1Cc1ccc(O)c(O)c1-3`, under “sheet LOPAC_screen_w_protease, primary screen at 5 µM, mean of two replicates”, the “mean (LOPAC screen with protease)” value was found to be 100.809. Further, the “Replicate_1 (LOPAC screen with protease)” value (sheet LOPAC_screen_w_protease, primary screen at 5 µM, replicate 1) is given as 99.6837. Further, the “Replicate_2 (LOPAC screen with protease)” value (sheet LOPAC_screen_w_protease, primary screen at 5 µM, replicate 2) came to 101.934.

Consider `Oc1ccc(O)cc1` [Hydroquinone], for which the inhibition at 5 µM by setting is: (read-out: Replicate_1) 3.41%; (read-out: Replicate_2) -0.951%; (read-out: mean) 1.23%.

Molecule `CC1OC(C[N+](C)(C)C)CS1.[I-]` (stereo not drawn) [OXA-22 iodide] registered a mean under setting [13] of 6.327. Under setting [14], this molecule registered a Replicate_1 of 7.065. Besides, the Replicate_2 under setting [15] came out at 5.588.
